Test results from patent US12545685B2 (Daiichi Sankyo Company, Limited, priority 2011, dated 2026).

Key:
[1] = human, microsomes, 0.5 h
Method: 100 μl of 100 mM phosphate buffer solution (pH 7.4) containing 3 μM test compound was added to 100 μl of reaction solution containing 100 mM phosphate buffer solution (pH 7.4), 30 mM glucose 6-phosphate, 10 mM MgCl2·6H2O, 3 units/ml glucose 6-phosphate 1-dehydrogenase, and 0.3 to 1.5 mg/ml human liver microsomes and the mixture was incubated at 37° C. for 20 minutes. Then 70 μl of 100 mM phosphate buffer solution (pH 7.4) containing 3 mM NADP+ was added and the mixture was further incubated at 37° C. for 30 minutes to conduct a microsomal metabolism test. The compound was quantified by the internal standard method using a quadrupole mass spectrometer connected to a high performance liquid chromatography apparatus. The metabolic stability (residual percentage of compound: MS %) was determined according to the following formula;
(peak area ratio: peak area of test compound divided by that of internal standard substance)

[2] = molecular target: T1, Mdm2/p53 binding (GST-Mdm2 / His-p53) (Homo sapiens, UniProt Q00987, L33E); test: Mdm2/p53 binding assay (HTRF, His-p53 and GST-Mdm2); conditions: His-p53 (aa 1-132) and GST-Mdm2 (aa 25-108, L33E) 6.25 nM each; 25°C, 1 hour; values given as ranges
T1 construct: Mdm2 partial protein having Mdm2 amino acids at positions 25 to 108
Method in brief: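 Binding was detected by HTRF (ex 320 nm, em 620/665 nm) after 1 h at 25 °C, using Eu-cryptate anti-GST and XL665 anti-His antibodies. The protein pair was GST-Mdm2 (residues 25–108, L33E) with His-p53 (residues 1–132), each 6.25 nM in the protein dilution. T/C used no-compound control and no-p53 background, and IC50 came from sigmoid fitting.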

[3] = tested on: human lung cancer-derived cell line NCI-H460 having wild-type p53; test: Cell growth inhibition assay (MTT); format: cell-based; conditions: 72 h, NCI-H460 cells, 3 days culture, values given as ranges, read-out: 50% growth inhibition concentration (GI50 value)
Method in brief: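 NCI-H460 cells (wild-type p53) seeded at 500 cells/well in RPMI1640 with 10% FBS, then treated the next day and grown 3 days at 37 °C. MTT read-out at OD 540 nm (660 nm reference), taken at dosing and at day 3. GI50 derived from T/C (%) dose-response curves.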

T1 sequence (Q00987 25-108 L33E): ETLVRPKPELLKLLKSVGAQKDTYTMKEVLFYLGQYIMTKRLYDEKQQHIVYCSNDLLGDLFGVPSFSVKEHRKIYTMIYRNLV

| SMILES | metabolic stability (residual percentage of compound: MS %) [1] | IC50 [2] | GI50 [3] |
| --- | --- | --- | --- |
| CC1(C)CCC2(CC1)N[C@@H](C(=O)N[C@H]1CC[C@H](c3nnco3)CC1)[C@H](c1cccc(Cl)c1F)[C@]21C(=O)Nc2cc(Cl)ncc21 (relative stereo) [Example 108, (3′R, 4′S, S′R)-6″-chloro-4′-(3-chloro-2-fluorophenyl)-4,4-dimethyl-N-[trans-4-(1,3,4-oxadiazol-2-yl)cyclohexyl]-2″-oxo-1″,2″-dihydrodispiro[cyclohexane-1,2′-pyrrolidine-3′,3″-pyrrolo[3,2-c]pyridine]-5′-carboxamide] | 70-100% |  |  |
| CC1(C)CCC2(CC1)N[C@@H](C(=O)N[C@H]1CC[C@H](c3nnco3)CC1)[C@H](c1cccc(Cl)c1F)[C@]21C(=O)Nc2cc(Cl)ccc21 [Example 183, (3′R, 4′S,5′R)-6′-chloro-4′-(3-chloro-2-fluorophenyl)-4,4-dimethyl-N-[trans-4-(1,3,4-oxadiazol-2-yl)cyclohexyl]-2″-oxo-1″,2″-dihydrodispiro[cyclohexane-1,2′-pyrrolidine-3′,3″-indole]-5′-carboxamide] |  | 50 to 100 nM | 100 to 500 nM |
| CC1(C)CCC2(CC1)N[C@@H](C(=O)N[C@@H]1CC[C@@H](C(N)=O)OC1)[C@H](c1cccc(Cl)c1F)[C@]21C(=O)Nc2cc(Cl)ncc21 [Example 185, (3′R, 4′S,5′R)—N-[(3R,6S)-6-carbamoyltetrahydro-2H-pyran-3-yl]-6″-chloro-4′-(3-chloro-2-fluorophenyl)-4,4-dimethyl-2″-oxo-1″,2″-dihydrodispiro[cyclohexane-1,2-pyrrolidine-3′,3″-pyrrolo[3,2-c]pyridine]-5′-carboxamide] |  | 1 to 50 nM | 100 to 500 nM |
| CC1(C)CCC2(CC1)N[C@@H](C(=O)N[C@@H]1CCC(C)(C(=O)O)OC1)[C@H](c1ccnc(Cl)c1F)[C@]21C(=O)Nc2cc(Cl)ccc21 (stereo partly drawn) [Example 186, (5R)-5-({[(3′R, 4′S,5′R)-6″-chloro-4′-(2-chloro-3-fluoropyridin-4-yl)-4,4-dimethyl-2″-oxo-1″,2″-dihydrodispiro[cyclohexane-1,2′-pyrrolidine-3′,3″-indole]-5′-yl]carbonyl}amino)-2-methyltetrahydro-2H-pyran-2-carboxylic acid] |  | 1 to 50 nM | 1000 to 5000 nM |
| CC1(C)CCC2(CC1)N[C@@H](C(=O)NC1(C)CC[C@@H](C(=O)O)OC1)[C@H](c1ccnc(Cl)c1F)[C@]21C(=O)Nc2cc(Cl)ccc21 (stereo partly drawn) [Example 188, (2S)-5-({[(3′R, 4′S,5′R)-6″-chloro-4′-(2-chloro-3-fluoropyridin-4-yl)-4,4-dimethyl-2″-oxo-1″,2″-dihydrodispiro[cyclohexane-1,2′-pyrrolidine-3′,3″-indole]-5′-yl]carbonyl}amino)-5-methyltetrahydro-2H-pyran-2-carboxylic acid] |  | 1 to 50 nM | 100 to 500 nM |
| CC1(C)CCC2(CC1)N[C@@H](C(=O)N[C@@H]1CC[C@@H](C(N)=O)OC1)[C@H](c1ccnc(Cl)c1F)[C@]21C(=O)Nc2cc(Cl)ncc21 [Example 191] |  | 1 to 50 nM | 100 to 500 nM |
